# Measured values reported in US9555115B2, “Pharmaceutical composition for oral administration with improved dissolution and/or absorption” (Taiho Pharmaceutical Co., Ltd., priority 2012, dated 2017).
# Assay: Compatibility test: related substances by HPLC after storage of mixed powders
# Format: physicochemical
# From the text: 4-((1-methylpyrrol-2-yl)-carbonyl)-N-(4-(4-morpholin-1-yl-carbonylpiperidin-1-yl)-phenyl)-1-piperazinecarboxamide (compound 1) monohydrate and organic acids were respectively weighed in an amount of 0.5 g. Compound 1 monohydrate was mixed with each organic acid in a mortar to produce individual mixed powders. Subsequently, compound 1 monohydrate alone was weighed in an amount of 0.5 g to produce a compound 1 monohydrate powder according to the same method as in the production of the organic acid mixed powders.
# Each organic acid mixed powder and each compound 1 monohydrate powder were weighed in amounts of 0.04 g and 0.02 g, respectively, in sealed and open glass bottles. These bottles were allowed to stand at 60° C. and a relative humidity of 60% for two weeks, and then the production of a compound 1 monohydrate related substance was examined by HPLC to evaluate stability. In the evaluation, a high-speed liquid chromatograph (Shimadzu Corporation) was used.
# Detector: Ultraviolet spectrophotometer (measurement wavelength: 260 nm)
# Column: Phenylated silica gel for liquid chromatography (3.5 μm) (XBridge Phenyl, Japan Waters, Inc.) was placed in a stainless pipe with an inner diameter of 4.6 mm and a length of 10 cm.
# Column temperature: Constant temperature of around 40° C.
# Mobile phase A: Phosphate buffer solution (pH 7)
# Mobile phase B: Acetonitrile
# Transfer of mobile phase: The concentration gradient is regulated by changing the mixing ratio of mobile phases A and B as shown in Table 1.
smiles,measurement,setting,value
"Cn1cccc1C(=O)N1CCN(C(=O)Nc2ccc(N3CCC(C(=O)N4CCOCC4)CC3)cc2)CC1.O [Compound 1 monohydrate, 4-((1-methylpyrrol-2-yl)-carbonyl)-N-(4-(4-morpholin-1-yl-carbonylpiperidin-1-yl)-phenyl)-1-piperazinecarboxamide]",Initial value Related Substances,"initial value, before storage",0.46 mass %
same,Open Related Substances,"open glass bottle, 60° C., relative humidity 60%, two weeks",0.47 mass %
same,Sealed Related Substances,"sealed glass bottle, 60° C., relative humidity 60%, two weeks",0.44 mass %
